We go through twelve compounds from ChEMBL document CHEMBL5214981, “Thionated aminofluorophthalimides reduce classical markers of cellular inflammation in LPS-challenged RAW 264.7 cells” (Bioorg Med Chem Lett, 2022).

The subject of data set [1] is RAW264.7. The experiment in a line: Antiinflammatory activity in LPS-activated mouse RAW264.7 cells assessed as inhibition of TNF-alpha production at 10 uM measured at 24 to 48 hrs after LPS stimulation by ELISA analysis relative to control. The note with it: time 24-48 hrs. In kind it is functional. On the set-up: scale not given: the % may be the effect or the level left. (In general: ELISA stands for enzyme-linked immunosorbent assay.)

Data set [2] relates to RAW264.7. The data set is described as follows: Cytotoxicity against LPS-activated mouse RAW264.7 cells assessed as reduction in cell viability at 10 uM measured at 24 to 48 hrs by MTS assay relative to control. Type of data set: toxicity, cell-based. Particulars: raw264.7, 10 µM, time 24-48 hrs.
The test system of data set [3] is RAW264.7. The experiment in a line: Antiinflammatory activity in LPS-activated mouse RAW264.7 cells assessed as inhibition of nitrite production at 10 uM measured at 24 to 48 hrs after LPS stimulation by ELISA analysis relative to control. The note with it: time 24-48 hrs. In kind it is functional. Further details: scale not given: the % may be the effect or the level left.

A short description of data set [4]: Metabolic stability in human liver microsomes assessed as compound remaining at 10 uM using pH 7.4 phosphate buffer incubated for 60 mins in the presence of NADPH regenerating system by LC/MS analysis (reference value: 100%). Particulars: read-out: Stability. In kind it is ADME, Microsome. In general terms: Liver microsomes are a subcellular fraction often used to study metabolism.

Data set [5] in a line: Metabolic stability in human liver microsomes assessed as compound remaining at 10 uM using pH 7.4 phosphate buffer incubated for 30 mins in the presence of NADPH regenerating system by LC/MS analysis (reference value: 100%). In kind it is ADME, Microsome. Particulars: read-out: Stability.
The nature of data set [6]: Metabolic stability in human liver microsomes assessed as compound remaining at 10 uM using pH 7.4 phosphate buffer incubated for 60 mins in the absence of NADPH regenerating system by LC/MS analysis (reference value: 100%). Particulars: read-out: Stability. In kind it is ADME, Microsome.
Data set [7] is described as follows: Metabolic stability in human liver microsomes assessed as compound remaining at 10 uM using pH 7.4 phosphate buffer incubated for 30 mins in the absence of NADPH regenerating system by LC/MS analysis (reference value: 100%). Type of data set: ADME, Microsome. The note with it: read-out: Stability.

Consider `O=C1CCC(N2C(=O)c3c(F)ccc([N+](=O)[O-])c3C2=O)C(=O)N1` (centres undefined), for which the Activity in data set [1] is 86%; in data set [2] it was 104.9%; in data set [3] it was 56.8%.

Regarding `Nc1cccc2c1C(=S)N(C1CCC(=S)NC1=O)C2=O` (centres undefined), the remaining at 1 h, 10 µM is 48% in data set [4] and 53% in data set [6]. Further, the remaining at 0.5 h, 10 µM is 68% in data set [5] and 71% in data set [7]. Further, the values for the Activity in data set [1], in data set [2] and in data set [3] were 113%, 92% and 43%, respectively.

Regarding `Nc1ccc(F)c2c1C(=O)N(C1CCC(=S)NC1=O)C2=O` (centres undefined), the Activity in data set [1] came out at 107%; in data set [2], 112.4%; in data set [3], 59%.

In the case of `O=C1NC(=S)CCC1N1C(=O)c2c(F)ccc([N+](=O)[O-])c2C1=O` (centres undefined), the Activity in data set [1] worked out at 51.3%; in data set [2], 44.9%; in data set [3], 4.7%.

Consider `Nc1ccc(F)c2c1C(=O)N(C1CCC(=O)NC1=O)C2=O` (centres undefined), for which the Activity in data set [1] stood at 98%; in data set [2], 100.9%; in data set [3], 86%.

As to `CC(C)Nc1ccc(F)c2c1C(=S)N(C1CCC(=S)NC1=O)C2=O` (centres undefined), the Activity in data set [1] is 74.7%; in data set [2], 74.1%; in data set [3], 32.3%.

For `CC(C)Nc1ccc(F)c2c1C(=O)N(C1CCC(=S)NC1=O)C2=O` (centres undefined), the Activity was found to be 94.4% in data set [1], 112.3% in data set [2] and 74.8% in data set [3].

For the compound `Nc1c(F)ccc2c1C(=S)N(C1CCC(=S)NC1=O)C2=O` (centres undefined), the Activity was found to be 114% in data set [1], 92% in data set [2] and 40% in data set [3].

For the compound `Nc1cccc2c1C(=O)N(C1CCC(=O)NC1=O)C2=O` (centres undefined) [POMALIDOMIDE], the Activity is given as 95% in data set [1], 95% in data set [2] and 91% in data set [3].

Regarding `CC(C)Nc1ccc(F)c2c1C(=O)N(C1CCC(=O)NC1=O)C2=O` (centres undefined), the Activity in data set [1] is recorded as 87.1%; in data set [2], 99.9%; in data set [3] it was 110.1%.

As for `Nc1c(F)ccc2c1C(=O)N(C1CCC(=O)NC1=O)C2=O` (centres undefined), the Activity was determined as 93% in data set [1], 90% in data set [2] and 100% in data set [3].

Consider `Nc1ccc(F)c2c1C(=S)N(C1CCC(=S)NC1=O)C2=O` (centres undefined), for which the values for the remaining at 1 h, 10 µM in data set [4] and in data set [6] were 41% and 46%, respectively. Besides, the remaining at 0.5 h, 10 µM in data set [5] was 64%; in data set [7] it was 71%. The Activity is 104.1% in data set [1], 95% in data set [2] and 22% in data set [3].
